In patent US20230172204A1 (BASF SE, priority 2020, published 2023):

How the values were obtained:
[1] = test system: Phakopsora pachyrhizi (F129L); experiment: Protective control of soybean rust on soybeans (PHAKPA P6); assay type: in vivo; settings: for PHAKPA (F129L) Disease level (%) P6 at 16 ppm / PHAKPA (F129L) Disease level (%) P6 at 4 ppm: P6 protective, % diseased leaf area; for % PHAKPA (F129L) Disease level P6 at 4 ppm: protective P6, 4 ppm; for % PHAKPA (F129L) Disease level P6 at 4 ppm / % PHAKPA (F129L) Disease level P6 at 16 ppm: soybean rust F129L; for % PHAKPA (F129L) Disease level P6 at 16 ppm: protective P6, 16 ppm
[2] = test system: Phakopsora pachyrhizi (F129L); experiment: Protective control of soybean rust on soybeans (PHAKPA P2); assay type: in vivo; settings: for PHAKPA (F129L) Disease level (%) P2 at 16 ppm / PHAKPA (F129L) Disease level (%) P2 at 4 ppm: P2 protective, % diseased leaf area; for % PHAKPA (F129L) Disease level P2 at 4 ppm: protective P2, 4 ppm; for % PHAKPA (F129L) Disease level P2 at 4 ppm / % PHAKPA (F129L) Disease level P2 at 16 ppm: soybean rust F129L; for % PHAKPA (F129L) Disease level P2 at 16 ppm: protective P2, 16 ppm

Compound | PHAKPA (F129L) Disease level (%) P6 at 16 ppm [1] [%] | % PHAKPA (F129L) Disease level P6 at 4 ppm [1] [%] | % PHAKPA (F129L) Disease level P6 at 16 ppm [1] [%] | PHAKPA (F129L) Disease level (%) P2 at 16 ppm [2] [%] | % PHAKPA (F129L) Disease level P2 at 4 ppm [2] [%] | % PHAKPA (F129L) Disease level P2 at 16 ppm [2] [%] | PHAKPA (F129L) Disease level (%) P6 at 4 ppm [1] [%] | PHAKPA (F129L) Disease level (%) P2 at 4 ppm [2] [%]
CO/N=C(/C(=O)OC)c1cccc(C)c1CO/N=C(\C)c1ccccc1F [Ex. 1, Methyl (2E)-2-[2-[[(E)-3-(2-fluorophenyl)ethylideneamino]oxymethyl]-3-methyl-phenyl]-2-methoxyimino-acetate] | 47 | 90 | 56 | 28 | 80 | 27 |  | 
CNC(=O)/C(=N/OC)c1cccc(C)c1CO/N=C(\C)c1ccccc1F [Ex. 2, (2E)-2-[2-[[(E)-1-(2-fluorophenyl)ethylideneamino]oxymethyl]-3-methyl-phenyl]-2-methoxyimino-N-methyl-acetamide] |  | 26 | 1 |  | 5 | 0 |  | 
CO/N=C(/C(=O)OC)c1cccc(C)c1CO/N=C(\C)c1cc(Cl)cc(Cl)c1 [Ex. 3, Methyl (2E)-2-[2-[[(E)-1-(3,5-dichlorophenyl)ethylideneamino]oxymethyl]-3-methyl-phenyl]-2-methoxyimino-acetate] | 1 | 40 | 6 | 2 | 30 | 3 |  | 
CNC(=O)/C(=N/OC)c1cccc(C)c1CO/N=C(\C)c1cc(Cl)cc(Cl)c1 [Ex. 4, (2E)-2-[2-[[(E)-1-(3,5-dichlorophenyl)ethylideneamino]oxymethyl]-3-methyl-phenyl]-2-methoxyimino-N-methyl-acetamide] |  | 13 | 1 |  | 2 | 0 | 17 | 2
CO/N=C(/C(=O)OC)c1cccc(C)c1CO/N=C(\C)c1ccc(C)cc1 [Ex. 5, Methyl (2E)-2-methoxyimino-2-[3-methyl-2-[[(E)-1-(p-tolyl)ethylideneamino]oxymethyl]phenyl]acetate] | 4 | 50 | 4 | 1 | 28 | 1 |  | 
CNC(=O)/C(=N/OC)c1cccc(C)c1CO/N=C(\C)c1ccc(C)cc1 [Ex. 6, (2E)-2-Methoxyimino-N-methyl-2-[3-methyl-2-[[(E)-1-(p-tolyl)ethylideneamino]oxymethyl]phenyl]acetamide] |  | 19 | 1 |  | 1 | 0 | 23 | 0
CO/N=C(/C(=O)OC)c1cccc(C2CC2)c1CO/N=C(\C)c1cccc(C(F)(F)F)c1 [Ex. 10] |  | 45 | 3 |  | 22 | 2 |  | 
CNC(=O)/C(=N/OC)c1cccc(C2CC2)c1CO/N=C(\C)c1cccc(C(F)(F)F)c1 [Ex. 11] |  | 20 | 0 |  | 23 | 1 |  | 
CNC(=O)/C(=N/OC)c1cccc(C)c1CO/N=C(\C)c1cccc(C(F)F)c1 [Ex. 12] | 9 | 37 | 9 | 3 | 25 | 1 |  | 
C=Cc1cccc(/C(=N\OC)C(=O)OC)c1CO/N=C(\C)c1cccc(C(F)(F)F)c1 [Ex. 13] |  | 25 | 0 |  | 28 | 0 |  | 
CNC(=O)/C(=N/OC)c1cccc(C)c1CO/N=C(\C)c1cccc(/C(C)=N/OC)c1 [Ex. 15] |  | 24 | 1 |  | 4 | 0 |  | 
CO/N=C(/C(=O)OC)c1cccc(C)c1CO/N=C(/c1ccc(Cl)cc1)C(F)F [Ex. 20] |  | 97 | 18 |  | 73 | 29 |  | 
CO/N=C(/C(=O)OC)c1cccc(C)c1CO/N=C(/c1ccc(F)cc1)C(F)F [Ex. 21] |  | 97 | 88 |  | 100 | 77 |  | 
CNC(=O)/C(=N/OC)c1cccc(C(F)F)c1CO/N=C(\C)c1cccc(C(F)(F)F)c1 [Ex. 23] |  | 20 | 1 |  | 12 | 1 |  | 
CO/N=C(/C(=O)OC)c1cccc(C(F)F)c1CO/N=C(\C)c1cccc(C(F)(F)F)c1 [Ex. 24] |  | 4 | 28 |  | 36 | 60 |  | 
CNC(=O)/C(=N/OC)c1cccc(C)c1CO/N=C(/c1ccc(F)cc1)C(F)F [Ex. 27] | 0 | 32 | 0 | 0 | 5 | 0 |  | 
CO/N=C(/C(=O)OC)c1cccc(C)c1CO/N=C(\C)c1cccc(OC(F)(F)F)c1 [Ex. 28] | 18 |  | 0 | 30 |  | 0 |  | 

Compound | PHAKPA (F129L) Disease level (%) P6 at 16 ppm [1] [%] | % PHAKPA (F129L) Disease level P6 at 4 ppm [1] [%] | % PHAKPA (F129L) Disease level P6 at 16 ppm [1] [%] | PHAKPA (F129L) Disease level (%) P2 at 16 ppm [2] [%] | % PHAKPA (F129L) Disease level P2 at 4 ppm [2] [%] | % PHAKPA (F129L) Disease level P2 at 16 ppm [2] [%] | PHAKPA (F129L) Disease level (%) P6 at 4 ppm [1] [%] | PHAKPA (F129L) Disease level (%) P2 at 4 ppm [2] [%]
CO/N=C(/C(=O)OC)c1cccc(C)c1CO/N=C(\C)c1ccccc1 [Ex. 30] | 1 | 77 | 2 | 2 | 53 | 1 |  | 
CNC(=O)/C(=N/OC)c1cccc(C)c1CO/N=C(\C)c1ccccc1 [Ex. 31] |  | 4 | 0 |  | 0 | 0 | 12 | 0
CO/N=C(/C(=O)OC)c1cccc(C)c1CO/N=C(\C)c1ccccc1C(F)(F)F [Ex. 36] | 57 | 100 | 43 | 47 | 100 | 42 |  | 
CO/N=C(/C(=O)OC)c1cccc(C)c1CO/N=C(\C)c1ccc(C(F)(F)F)cc1 [Ex. 37] | 0 | 40 | 2 | 0 | 40 | 3 |  | 
CO/N=C(/C(=O)OC)c1cccc(C)c1CO/N=C(\C)c1ccc(CC2COC2)cc1 [compound 82] |  |  |  |  | 87 | 57 |  | 
CNC(=O)/C(=N/OC)c1cccc(C)c1CO/N=C(\C)c1ccc(CC2COC2)cc1 [compound 83] |  |  |  |  | 97 | 73 |  | 
CNC(=O)/C(=N/OC)c1cccc(C)c1CO/N=C(\C)c1ccc(OC(F)(F)F)cc1Cl [compound 271] |  |  |  |  | 5 | 1 |  | 
CNC(=O)/C(=N/OC)c1cccc(C)c1CO/N=C(\C)c1cc(C(F)(F)F)ccc1C(F)(F)F [compound 272] |  |  |  |  | 60 | 8 |  | 
CNC(=O)/C(=N/OC)c1cccc(C)c1CO/N=C(\C)c1cc(C(F)(F)F)ccc1C [compound 273] |  |  |  |  | 60 | 3 |  | 
CCOc1ccccc1/C(C)=N/OCc1c(C)cccc1/C(=N\OC)C(=O)NC [compound 312] |  |  |  |  | 100 | 53 |  | 
CNC(=O)/C(=N/OC)c1cccc(C)c1CO/N=C(\C)c1ccccc1OCOC [compound 314] |  |  |  |  | 100 | 40 |  | 
CNC(=O)/C(=N/OC)c1cccc(C)c1CO/N=C(\C)c1ccccc1OC(C)C [compound 315] |  |  |  |  | 100 | 60 |  | 
CNC(=O)/C(=N/OC)c1cccc(C)c1CO/N=C(\C)c1ccccc1Oc1ccccc1 [compound 321] |  |  |  |  | 100 | 40 |  | 
CO/N=C(/C(=O)OC)c1cccc(C)c1CO/N=C(\C)c1cccc(OC(F)(F)F)c1 [drawing 936, reference compound] |  |  |  |  |  |  |  | 17
CNC(=O)/C(=N/OC)c1cccc(C)c1CO/N=C(\OC)c1cccc(C)c1 [drawing 974, reference compound] | 45 |  |  |  |  |  |  | 
CO/N=C(/C(=O)OC)c1cccc(C)c1CO/N=C(\OC)c1cccc(C(F)(F)F)c1 [drawing 977, reference compound] | 23 |  |  |  |  |  |  | 
